Data: patent US9629365B2, “Macrocyclic picolinamides compounds with fungicidal activity” (DOW AGROSCIENCES LLC, priority 2013, dated 2017)
Like-named read-outs stand apart in the source and are kept apart here.

What was measured:
[1] = test system: Puccinia triticina; test: Wheat Brown Rust (PUCCRT) fungicidal activity; assay type: in vivo; conditions: for pest or weed control at 100 ppm: rate 100 ppm (high volume application); for pest or weed control at 121.5 g/ha: rate 121.5 g/H (low volume application)
Experimental: (§1) Technical grades of materials were dissolved in acetone, which were then mixed with nine volumes of water containing 110 ppm Triton X-100. The fungicide solutions were applied onto wheat seedlings using an automated booth sprayer to run-off. All sprayed plants were allowed to air dry prior to further handling. All fungicides were evaluated using the aforementioned method for their activity vs. all target diseases. Wheat leaf blotch and brown rust activity were also evaluated using track spray applications, in which case the fungicides were formulated as EC formulations, containing 0.1% Trycol 5941 in the spray solutions. Wheat plants (variety Yuma) were grown from seed in a greenhouse in 50% mineral soil/50% soil-less Metro mix until the first leaf was fully emerged, with 7-10 seedlings per pot. These plants were inoculated with an aqueous spore suspension of Septoria tritici either prior to or after fungicide treatments. After inoculation the plants were kept in 100% relative humidity (one day in a dark dew chamber followed by two to three days in a lighted dew chamber at 20° C.) to permit spores to germinate and infect the leaf. The plants were then transferred to a greenhouse set at 20° C. for disease to develop. When disease symptoms were fully expressed on the 1st leaves of untreated plants, infection levels were assessed on a scale of 0 to 100 percent disease severity. Percent disease control was calculated using the ratio of disease severity on treated plants relative to untreated plants. Wheat plants (variety Yuma) were grown from seed in a greenhouse in 50% mineral soil/50% soil-less Metro mix until the first leaf was fully emerged, with 7-10 seedlings per pot. These plants were inoculated with an aqueous spore suspension of Puccinia triticina either prior to or after fungicide treatments. After inoculation the plants were kept in a dark dew room at 22° C. with 100% relative humidity overnight to permit spores to germinate and infect the leaf. The plants were then transferred to a greenhouse set at 24° C. for disease to develop. Fungicide formulation, application and disease assessment followed the procedures as described in the Example A.

[2] = test system: Alternaria solani; test: Tomato Early Blight (ALTESO) fungicidal activity; assay type: in vivo; conditions: 24 h, 1 Day Protectant, tomato plants, read-out: ALTESO Disease Control 1DP
[3] = test system: Cercospora beticola; test: Leaf Spot of Sugar Beets (CERCBE) fungicidal activity; assay type: in vivo; conditions: topical, 24 h, 1 Day Protectant, sugar beet plants, read-out: CERCBE Disease Control 1DP
[4] = test system: Venturia inaequalis; test: Apple Scab (VENTIN) fungicidal activity; assay type: in vivo; conditions: 24 h, 1 Day Protectant, read-out: VENTIN 1DP Disease Control at 100 ppm
[5] = test system: Glomerella lagenarium; Anamorph: Colletotrichum lagenarium; test: Cucumber Anthracnose (COLLLA) fungicidal activity; assay type: in vivo; conditions: Colletotrichum orbiculare, 24 h, 1 Day Protectant, cucumber seedlings, read-out: COLLLA Disease Control 1DP
[6] = test system: Rhyncosporium secalis; test: Barley Scald (RHYNSE) fungicidal activity; assay type: in vivo; conditions: Hordeum vulgare, 24 h, 1 Day Protectant, read-out: RHYNSE 1DP Disease Control at 100 ppm
[7] = test system: Leptosphaeria nodorum; test: Wheat Glume Blotch (LEPTNO) fungicidal activity; assay type: in vivo; conditions: Parastagonospora nodorum, 24 h, 1 Day Protectant, read-out: LEPTNO 1DP Disease Control at 100 ppm
Experimental: Technical grades of materials were dissolved in acetone, which were then mixed with nine volumes of water containing 110 ppm Triton X-100. The fungicide solutions were applied onto wheat seedlings using an automated booth sprayer to run-off. All sprayed plants were allowed to air dry prior to further handling. All fungicides were evaluated using the aforementioned method for their activity vs. all target diseases. Wheat leaf blotch and brown rust activity were also evaluated using track spray applications, in which case the fungicides were formulated as EC formulations, containing 0.1% Trycol 5941 in the spray solutions. Wheat plants (variety Yuma) were grown from seed in a greenhouse in 50% mineral soil/50% soil-less Metro mix until the first leaf was fully emerged, with 7-10 seedlings per pot. These plants were inoculated with an aqueous spore suspension of Septoria tritici either prior to or after fungicide treatments. […] When disease symptoms were fully expressed on the 1st leaves of untreated plants, infection levels were assessed on a scale of 0 to 100 percent disease severity. Percent disease control was calculated using the ratio of disease severity on treated plants relative to untreated plants. […]

[8] = test system: Erysiphe cichoracearum; test: Powdery Mildew of Cucumber (ERYSCI) fungicidal activity; assay type: in vivo; conditions: Golovinomyces cichoracearum, topical, 24 h, 1 Day Protectant, cucumber seedlings, read-out: ERYSCI Disease Control 1DP
[9] = test system: Magnaporthe grisea; Anamorph: Pyricularia oryzae; test: whole plant or invertebrate; assay type: in vivo; conditions: 24 h, read-out: PYRIOR 1DP Disease Control at 100 ppm
[10] = test system: Blumeria graminis f. Sp. Hordei; test: Barley Powdery Mildew (ERYSGH) fungicidal activity; assay type: in vivo; conditions: 24 h, 1 Day Protectant, barley seedlings, read-out: ERYSGH Disease Control 1DP
[11] = test system: Mycosphaerella graminicola; Anamorph: Septoria tritici; test: Leaf Blotch of Wheat (SEPTTR) fungicidal activity; assay type: in vivo; conditions: Zymoseptoria tritici; for pest or weed control at 100 ppm: rate 100 ppm (high volume application); for pest or weed control at 121.5 g/ha: rate 121.5 g/H (low volume application)
Experimental: as §1, with “plants.” for “plants. Wheat plants (variety Yuma) were grown from seed in a greenhouse in 50% mineral soil/50% soil-less Metro mix until the first leaf was fully emerged, with 7-10 seedlings per pot. These plants were inoculated with an aqueous spore suspension of Puccinia triticina either prior to or after fungicide treatments. After inoculation the plants were kept in a dark dew room at 22° C. with 100% relative humidity overnight to permit spores to germinate and infect the leaf. The plants were then transferred to a greenhouse set at 24° C. for disease to develop. Fungicide formulation, application and disease assessment followed the procedures as described in the Example A.”

[12] = test system: Uncinula necator; test: Grape Powdery Mildew (UNCINE) fungicidal activity; assay type: in vivo; conditions: Erysiphe necator, 24 h, 1 Day Protectant, read-out: UNCINE 1DP Disease Control at 100 ppm
[13] = test system: Phakopsora pachyrhizi; test: Asian Soybean Rust (PHAKPA) fungicidal activity; assay type: in vivo; conditions: topical, soybean plants
Experimental: Technical grades of materials were dissolved in acetone, which were then mixed with nine volumes of water containing 0.011% Tween 20. The fungicide solutions were applied onto soybean seedlings using an automated booth sprayer to run-off. All sprayed plants were allowed to air dry prior to further handling.
Soybean plants (variety Williams 82) were grown in soil-less Metro mix, with one plant per pot. Two weeks old seedlings were used for testing. Plants were inoculated either 3 days prior to or 1 day after fungicide treatments. Plants were incubated for 24 h in a dark dew room at 22° C. and 100% RH then transferred to a growth room at 23° C. for disease to develop. Disease severity was assessed on the sprayed leaves.

[14] = 24 h, 1 Day Protectant, read-out: PUCCRT 1DP disease control
[15] = 72 h, 3 Day Curative, read-out: PUCCRT 3DC disease control
[16] = 24 h, 1 Day Protectant, read-out: SEPTTR 1DP disease control
[17] = 72 h, 3 Day Curative, read-out: SEPTTR 3DC disease control

COc1ccnc(C(=O)N[C@H]2CCC[C@H](CCC(C)C)[C@@H](OC(=O)C3CCCC3)[C@H](C)OC2=O)c1OCOC(C)=O [F96]
pest or weed control at 100 ppm [1, 14]: 80 to 100% | pest or weed control at 121.5 g/ha [1, 14]: 80 to 100% | pest or weed control at 100 ppm [1, 15]: 80 to 100% | pest or weed control at 121.5 g/ha [1, 15]: 0 to 80% | pest or weed control at 100 ppm [2]: 80 to 100% | pest or weed control at 100 ppm [3]: 80 to 100% | pest or weed control at 100 ppm [4]: 0 to 80% | pest or weed control at 100 ppm [5]: 80 to 100% | pest or weed control at 100 ppm [6]: 80 to 100% | pest or weed control at 100 ppm [7]: 80 to 100% | pest or weed control at 100 ppm [8]: 80 to 100% | pest or weed control at 100 ppm [9]: 80 to 100% | pest or weed control at 100 ppm [10]: 0 to 80% | pest or weed control at 100 ppm [11, 16]: 80 to 100% | pest or weed control at 121.5 g/ha [11, 16]: 80 to 100% | pest or weed control at 100 ppm [11, 17]: 80 to 100% | pest or weed control at 121.5 g/ha [11, 17]: 80 to 100% | pest or weed control at 100 ppm [12]: 80 to 100% | pest or weed control at 25 ppm ([13]; 24 h, 1 Day Protectant, read-out: PHAKPA Disease Control 1DP): 80 to 100% | pest or weed control at 25 ppm ([13]; 72 h, 3 Day Curative, read-out: PHAKPA Disease Control 3DC): 0 to 80%

COc1ccnc(C(=O)N[C@H]2CCC[C@H](Cc3ccc(F)cc3)[C@@H](OCC3CC3)[C@H](C)OC2=O)c1O [F10]
pest or weed control at 100 ppm [1, 14]: 80 to 100% | pest or weed control at 121.5 g/ha [1, 14]: 80 to 100% | pest or weed control at 100 ppm [1, 15]: 80 to 100% | pest or weed control at 121.5 g/ha [1, 15]: 0 to 80% | pest or weed control at 100 ppm [11, 16]: 80 to 100% | pest or weed control at 121.5 g/ha [11, 16]: 80 to 100% | pest or weed control at 100 ppm [11, 17]: 80 to 100% | pest or weed control at 121.5 g/ha [11, 17]: 80 to 100%

CO[C@@H]1[C@@H](CCC(C)C)CCC[C@H](N)C(=O)O[C@H]1C.Cl
melting point: 218 to 220 °C
